Test results from ChEMBL document CHEMBL5678818, “Discovery of potent SOS1 inhibitors that block RAS activation via disruption of the RAS-SOS1 interaction” (Proc Natl Acad Sci U S A, 2019).

Tests used:
[1] = molecular target: Tyrosine-protein kinase Yes (Homo sapiens) (UniProt P07947); experiment: Inhibition of YES (unknown origin) assessed as residual activity at 1000 nM by KINOMEscan analysis relative to control
[2] = molecular target: Serine/threonine-protein kinase 32A (Homo sapiens) (UniProt Q8WU08); experiment: Inhibition of YANK1 (unknown origin) assessed as residual activity at 1000 nM by KINOMEscan analysis relative to control
Serine/threonine-protein kinase 32A (Homo sapiens), sequence (Q8WU08 whole entry): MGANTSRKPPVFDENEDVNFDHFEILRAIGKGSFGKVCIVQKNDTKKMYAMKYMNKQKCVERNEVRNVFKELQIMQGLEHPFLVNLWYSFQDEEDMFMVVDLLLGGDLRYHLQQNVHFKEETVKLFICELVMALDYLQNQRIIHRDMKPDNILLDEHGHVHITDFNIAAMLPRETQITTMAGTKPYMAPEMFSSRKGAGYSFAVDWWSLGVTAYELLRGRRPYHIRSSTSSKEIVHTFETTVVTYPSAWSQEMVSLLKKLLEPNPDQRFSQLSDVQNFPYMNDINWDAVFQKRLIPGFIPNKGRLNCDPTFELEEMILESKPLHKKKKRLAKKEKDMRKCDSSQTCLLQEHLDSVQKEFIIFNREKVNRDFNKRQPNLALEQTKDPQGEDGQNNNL

[3] = molecular target: Serine/threonine-protein kinase 32C (Homo sapiens) (UniProt Q86UX6); experiment: Inhibition of YANK3 (unknown origin) assessed as residual activity at 1000 nM by KINOMEscan analysis relative to control
Serine/threonine-protein kinase 32C (Homo sapiens), sequence (Q86UX6 whole entry): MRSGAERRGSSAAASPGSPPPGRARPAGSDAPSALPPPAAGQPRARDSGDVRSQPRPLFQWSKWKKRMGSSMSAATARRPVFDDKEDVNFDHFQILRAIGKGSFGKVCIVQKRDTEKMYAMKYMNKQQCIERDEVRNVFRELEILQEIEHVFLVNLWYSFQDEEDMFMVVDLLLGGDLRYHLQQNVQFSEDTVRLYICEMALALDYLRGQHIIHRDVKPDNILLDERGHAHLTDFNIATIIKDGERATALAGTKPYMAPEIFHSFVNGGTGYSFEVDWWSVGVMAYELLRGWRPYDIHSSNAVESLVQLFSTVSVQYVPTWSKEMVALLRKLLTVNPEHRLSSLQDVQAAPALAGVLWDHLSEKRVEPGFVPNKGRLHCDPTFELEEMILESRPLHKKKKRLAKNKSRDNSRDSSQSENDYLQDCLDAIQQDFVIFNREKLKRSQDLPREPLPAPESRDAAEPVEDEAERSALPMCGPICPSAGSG

[4] = molecular target: T1, Mitogen-activated protein kinase kinase kinase kinase 2 (Homo sapiens) (UniProt Q12851); experiment: Inhibition of MAP4K2 (unknown origin) assessed as residual activity at 1000 nM by KINOMEscan analysis relative to control
T1 sequence (whole entry): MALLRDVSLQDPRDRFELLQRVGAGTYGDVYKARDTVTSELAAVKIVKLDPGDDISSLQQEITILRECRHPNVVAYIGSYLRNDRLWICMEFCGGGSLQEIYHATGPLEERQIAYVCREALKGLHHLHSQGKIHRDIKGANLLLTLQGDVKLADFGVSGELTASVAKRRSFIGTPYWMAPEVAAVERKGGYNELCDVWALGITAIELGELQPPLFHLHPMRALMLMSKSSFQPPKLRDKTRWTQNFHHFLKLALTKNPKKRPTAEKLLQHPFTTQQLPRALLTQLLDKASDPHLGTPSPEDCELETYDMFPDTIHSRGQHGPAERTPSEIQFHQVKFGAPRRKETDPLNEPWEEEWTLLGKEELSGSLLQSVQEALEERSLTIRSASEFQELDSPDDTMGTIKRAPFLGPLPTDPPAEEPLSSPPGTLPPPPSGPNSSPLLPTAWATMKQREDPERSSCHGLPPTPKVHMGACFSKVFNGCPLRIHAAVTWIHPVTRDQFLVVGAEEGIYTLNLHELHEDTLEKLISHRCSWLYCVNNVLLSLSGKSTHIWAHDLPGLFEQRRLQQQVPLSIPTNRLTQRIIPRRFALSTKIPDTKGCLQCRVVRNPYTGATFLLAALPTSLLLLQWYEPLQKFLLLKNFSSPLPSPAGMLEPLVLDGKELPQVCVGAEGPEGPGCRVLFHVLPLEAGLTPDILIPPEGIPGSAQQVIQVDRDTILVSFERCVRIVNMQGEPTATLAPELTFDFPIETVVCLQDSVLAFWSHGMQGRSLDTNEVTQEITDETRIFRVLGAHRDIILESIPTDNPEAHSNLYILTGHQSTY

[5] = molecular target: Eukaryotic translation initiation factor 2-alpha kinase 1 (Homo sapiens) (UniProt Q9BQI3); experiment: Inhibition of EIF2AK1 (unknown origin) assessed as residual activity at 1000 nM by KINOMEscan analysis relative to control
Eukaryotic translation initiation factor 2-alpha kinase 1 (Homo sapiens), sequence (Q9BQI3 whole entry): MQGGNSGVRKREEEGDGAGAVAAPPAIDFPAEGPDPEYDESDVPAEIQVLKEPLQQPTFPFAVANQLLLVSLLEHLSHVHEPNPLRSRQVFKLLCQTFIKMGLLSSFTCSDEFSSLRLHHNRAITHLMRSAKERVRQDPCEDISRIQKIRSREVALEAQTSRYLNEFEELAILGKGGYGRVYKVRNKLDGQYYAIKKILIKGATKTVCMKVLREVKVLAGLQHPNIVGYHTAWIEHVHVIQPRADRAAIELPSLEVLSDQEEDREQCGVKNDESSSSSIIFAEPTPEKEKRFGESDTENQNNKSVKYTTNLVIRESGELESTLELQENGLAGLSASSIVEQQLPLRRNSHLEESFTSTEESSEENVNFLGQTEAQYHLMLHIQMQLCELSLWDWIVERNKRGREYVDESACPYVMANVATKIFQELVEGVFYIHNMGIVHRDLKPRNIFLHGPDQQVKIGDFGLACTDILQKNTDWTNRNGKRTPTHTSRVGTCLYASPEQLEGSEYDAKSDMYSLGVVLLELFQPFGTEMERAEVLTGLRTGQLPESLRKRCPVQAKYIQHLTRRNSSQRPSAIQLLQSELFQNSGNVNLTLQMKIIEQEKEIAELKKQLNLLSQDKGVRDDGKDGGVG

[6] = molecular target: Cyclin-dependent kinase 11B (Homo sapiens) (UniProt P21127); experiment: Inhibition of CDC2L1 (unknown origin) assessed as residual activity at 1000 nM by KINOMEscan analysis relative to control
Cyclin-dependent kinase 11B (Homo sapiens), sequence (P21127 whole entry): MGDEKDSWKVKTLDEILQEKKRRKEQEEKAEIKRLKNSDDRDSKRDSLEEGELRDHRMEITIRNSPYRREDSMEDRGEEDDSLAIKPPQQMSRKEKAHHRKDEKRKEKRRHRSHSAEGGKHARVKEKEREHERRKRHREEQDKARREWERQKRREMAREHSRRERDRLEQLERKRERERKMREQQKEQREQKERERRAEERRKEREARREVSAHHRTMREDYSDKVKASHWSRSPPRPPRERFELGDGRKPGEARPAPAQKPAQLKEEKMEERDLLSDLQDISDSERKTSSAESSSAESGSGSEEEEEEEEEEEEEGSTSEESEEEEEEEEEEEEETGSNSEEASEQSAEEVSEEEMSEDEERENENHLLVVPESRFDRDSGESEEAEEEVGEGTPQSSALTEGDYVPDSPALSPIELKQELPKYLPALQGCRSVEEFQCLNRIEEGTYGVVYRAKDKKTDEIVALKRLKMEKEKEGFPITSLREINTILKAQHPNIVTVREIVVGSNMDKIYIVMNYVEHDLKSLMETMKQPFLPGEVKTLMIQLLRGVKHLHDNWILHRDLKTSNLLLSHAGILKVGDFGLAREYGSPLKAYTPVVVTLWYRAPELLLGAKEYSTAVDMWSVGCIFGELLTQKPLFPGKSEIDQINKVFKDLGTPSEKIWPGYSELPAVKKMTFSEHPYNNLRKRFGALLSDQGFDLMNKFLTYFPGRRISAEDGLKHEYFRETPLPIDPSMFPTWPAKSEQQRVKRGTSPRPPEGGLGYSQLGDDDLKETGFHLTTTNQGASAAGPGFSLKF

[7] = system: Leucine-rich repeat serine/threonine-protein kinase 2 (Homo sapiens), Q5S007 [G2019S]; experiment: Inhibition of LRRK2 G2019S mutant (unknown origin) assessed as residual activity at 1000 nM by KINOMEscan analysis relative to control
Leucine-rich repeat serine/threonine-protein kinase 2 (Homo sapiens), Q5S007 [G2019S], sequence (Q5S007 whole entry G2019S): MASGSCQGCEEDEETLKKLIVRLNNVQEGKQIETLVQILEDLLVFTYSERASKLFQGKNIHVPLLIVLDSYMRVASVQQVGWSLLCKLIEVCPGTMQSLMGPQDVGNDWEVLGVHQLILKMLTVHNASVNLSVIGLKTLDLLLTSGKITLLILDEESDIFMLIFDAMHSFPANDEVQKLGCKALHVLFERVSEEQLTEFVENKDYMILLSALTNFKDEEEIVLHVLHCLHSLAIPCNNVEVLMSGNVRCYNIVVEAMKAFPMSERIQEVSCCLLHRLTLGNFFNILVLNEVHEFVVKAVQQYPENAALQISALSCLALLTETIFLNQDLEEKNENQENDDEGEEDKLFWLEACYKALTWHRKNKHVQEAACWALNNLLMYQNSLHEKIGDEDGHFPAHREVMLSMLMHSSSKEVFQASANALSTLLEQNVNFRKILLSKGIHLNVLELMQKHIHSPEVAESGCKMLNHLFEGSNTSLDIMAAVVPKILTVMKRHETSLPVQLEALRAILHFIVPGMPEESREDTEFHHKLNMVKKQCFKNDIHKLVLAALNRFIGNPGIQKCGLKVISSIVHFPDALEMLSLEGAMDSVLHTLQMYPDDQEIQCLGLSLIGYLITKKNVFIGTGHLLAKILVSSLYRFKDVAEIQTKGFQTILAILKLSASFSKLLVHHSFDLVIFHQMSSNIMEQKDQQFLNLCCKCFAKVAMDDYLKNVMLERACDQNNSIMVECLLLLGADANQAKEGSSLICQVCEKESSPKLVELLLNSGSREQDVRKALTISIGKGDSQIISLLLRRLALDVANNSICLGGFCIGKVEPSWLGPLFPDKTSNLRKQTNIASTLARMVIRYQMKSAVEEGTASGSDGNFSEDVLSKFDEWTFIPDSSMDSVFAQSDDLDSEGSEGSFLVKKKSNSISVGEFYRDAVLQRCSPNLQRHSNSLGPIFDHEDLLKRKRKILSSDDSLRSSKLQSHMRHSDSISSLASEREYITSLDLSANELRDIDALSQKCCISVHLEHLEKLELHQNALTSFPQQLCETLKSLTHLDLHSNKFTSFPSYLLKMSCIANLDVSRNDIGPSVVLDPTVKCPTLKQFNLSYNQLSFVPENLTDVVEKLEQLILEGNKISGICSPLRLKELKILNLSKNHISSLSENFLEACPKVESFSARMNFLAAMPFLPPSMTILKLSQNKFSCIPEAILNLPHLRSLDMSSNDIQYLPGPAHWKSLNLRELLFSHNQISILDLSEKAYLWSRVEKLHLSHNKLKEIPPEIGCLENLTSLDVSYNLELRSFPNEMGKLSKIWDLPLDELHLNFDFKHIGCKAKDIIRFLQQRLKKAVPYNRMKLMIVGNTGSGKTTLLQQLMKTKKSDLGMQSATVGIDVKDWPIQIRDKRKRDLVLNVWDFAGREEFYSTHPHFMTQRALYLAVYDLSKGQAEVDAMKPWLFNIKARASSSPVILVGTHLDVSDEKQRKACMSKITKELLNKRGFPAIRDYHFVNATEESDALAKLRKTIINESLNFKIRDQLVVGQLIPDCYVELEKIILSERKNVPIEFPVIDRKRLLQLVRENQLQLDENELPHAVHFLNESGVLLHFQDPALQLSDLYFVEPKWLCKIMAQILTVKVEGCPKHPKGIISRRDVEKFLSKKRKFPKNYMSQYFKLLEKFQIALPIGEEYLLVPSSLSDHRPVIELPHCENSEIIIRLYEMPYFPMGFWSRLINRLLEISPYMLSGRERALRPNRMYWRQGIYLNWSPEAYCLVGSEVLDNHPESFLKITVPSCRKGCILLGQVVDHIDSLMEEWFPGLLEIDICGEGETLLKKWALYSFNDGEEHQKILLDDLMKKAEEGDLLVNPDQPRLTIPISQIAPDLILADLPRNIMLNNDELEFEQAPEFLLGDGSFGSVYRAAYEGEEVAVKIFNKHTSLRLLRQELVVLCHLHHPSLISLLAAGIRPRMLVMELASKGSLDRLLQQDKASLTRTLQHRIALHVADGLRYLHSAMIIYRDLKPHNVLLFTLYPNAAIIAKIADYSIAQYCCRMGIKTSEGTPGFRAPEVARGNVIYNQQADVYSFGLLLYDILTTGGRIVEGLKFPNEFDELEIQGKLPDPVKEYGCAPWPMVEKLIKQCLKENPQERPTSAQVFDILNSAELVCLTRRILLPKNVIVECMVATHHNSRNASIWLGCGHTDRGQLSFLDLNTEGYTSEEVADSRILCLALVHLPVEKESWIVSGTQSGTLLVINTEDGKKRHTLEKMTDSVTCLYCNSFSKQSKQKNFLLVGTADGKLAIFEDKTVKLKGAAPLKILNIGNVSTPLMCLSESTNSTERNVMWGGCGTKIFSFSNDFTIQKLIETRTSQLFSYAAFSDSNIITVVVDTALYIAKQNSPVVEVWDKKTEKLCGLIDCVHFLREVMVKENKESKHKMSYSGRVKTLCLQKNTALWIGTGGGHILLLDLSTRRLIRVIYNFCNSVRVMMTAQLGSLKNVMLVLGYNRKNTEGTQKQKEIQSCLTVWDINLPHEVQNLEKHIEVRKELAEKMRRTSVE

[8] = system: Receptor-type tyrosine-protein kinase FLT3 (Homo sapiens), P36888 [D835H]; experiment: Inhibition of FLT3 D835H mutant (unknown origin) assessed as residual activity at 1000 nM by KINOMEscan analysis relative to control
[9] = molecular target: T2, Ephrin type-A receptor 3 (Homo sapiens) (UniProt P29320); experiment: Inhibition of EPHA3 (unknown origin) assessed as residual activity at 1000 nM by KINOMEscan analysis relative to control
T2 sequence (whole entry): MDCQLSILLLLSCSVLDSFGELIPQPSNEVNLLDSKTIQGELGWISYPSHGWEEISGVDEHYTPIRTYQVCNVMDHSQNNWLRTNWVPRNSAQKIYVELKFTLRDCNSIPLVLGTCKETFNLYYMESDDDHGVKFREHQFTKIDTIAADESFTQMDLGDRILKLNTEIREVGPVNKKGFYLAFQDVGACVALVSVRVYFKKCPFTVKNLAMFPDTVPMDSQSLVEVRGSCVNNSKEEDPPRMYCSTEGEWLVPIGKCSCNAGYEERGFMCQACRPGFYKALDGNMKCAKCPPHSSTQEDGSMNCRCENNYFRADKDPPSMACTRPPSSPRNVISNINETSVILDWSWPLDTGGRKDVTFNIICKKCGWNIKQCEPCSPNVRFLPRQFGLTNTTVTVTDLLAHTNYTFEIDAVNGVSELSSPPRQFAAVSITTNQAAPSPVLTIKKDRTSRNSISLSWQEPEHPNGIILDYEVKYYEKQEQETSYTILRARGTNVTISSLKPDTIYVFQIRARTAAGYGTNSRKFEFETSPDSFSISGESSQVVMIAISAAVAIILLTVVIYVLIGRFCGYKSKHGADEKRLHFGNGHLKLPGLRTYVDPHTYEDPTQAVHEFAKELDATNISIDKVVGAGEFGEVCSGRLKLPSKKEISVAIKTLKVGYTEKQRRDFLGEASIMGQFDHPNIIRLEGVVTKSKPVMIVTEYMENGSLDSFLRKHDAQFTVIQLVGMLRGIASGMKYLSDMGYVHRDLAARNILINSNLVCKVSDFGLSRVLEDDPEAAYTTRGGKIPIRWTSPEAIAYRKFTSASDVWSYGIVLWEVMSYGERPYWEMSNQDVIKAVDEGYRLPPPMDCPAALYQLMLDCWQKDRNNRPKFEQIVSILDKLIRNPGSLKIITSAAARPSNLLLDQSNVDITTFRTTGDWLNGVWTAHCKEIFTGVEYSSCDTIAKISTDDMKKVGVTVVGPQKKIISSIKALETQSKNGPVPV

[10] = molecular target: Non-receptor tyrosine-protein kinase TYK2 (Homo sapiens) (UniProt P29597); experiment: Inhibition of TYK2 JH1 catalytic domain (unknown origin) assessed as residual activity at 1000 nM by KINOMEscan analysis relative to control
[11] = system: Tyrosine-protein kinase ABL1 (Homo sapiens), P00519 [H396P]; experiment: Inhibition of nonphosphorylated ABL1 H396P mutant (unknown origin) assessed as residual activity at 1000 nM by KINOMEscan analysis relative to control
[12] = molecular target: Maternal embryonic leucine zipper kinase (Homo sapiens) (UniProt Q14680); experiment: Inhibition of MELK (unknown origin) assessed as residual activity at 1000 nM by KINOMEscan analysis relative to control

Structure (SMILES)	Activity [1]	Activity [2]	Activity [3]	Activity [4]	Activity [5]	Activity [6]	Activity [7]	Activity [8]	Activity [9]	Activity [10]	Activity [11]	Activity [12]
COc1cc2nc(C)nc(N[C@H](C)c3cccc(-c4cn[nH]c4)c3)c2cc1OC	67%	97%	98%	100%	100%	94%	91%	100%	90%	77%	71%	91%
COc1cc2ncnc(N[C@H](C)c3cccc4ccccc34)c2cc1OC	100%	86%	100%	78%	88%	83%	95%	96%	48%	82%	100%	71%
